Consider one substance from patent US20200080053A1, “USE OF PEPTIDE COMPOUNDS FOR PROMOTING SURVIVAL, GROWTH AND CELL DIFFERENTIATION” (Axoltis Pharma, priority 2016, published 2020).

Entries after “also recorded” stand apart in the source; their conditions may differ.

Experiment [1] deals with 129S v/J embryonic stem cells (ESCs). Nature of the experiment: Early differentiation of ESCs on gelatin without LIF and serum, nestin/MAP2 immunocytochemistry. Type of experiment: cell-based. The method, then: 129S v/J embryonic stem cells (ESCs) were seeded at a concentration of 0.7×10^6 cells in 35 mm diameter Petri dishes covered with a gelatin substrate.
The culture medium used was the Glasgow's minimal essential medium (G-MEM) supplemented with N2 supplement.
To enable differentiation of ESCs into neuroepithelial progenitors, the culture medium was deprived of LIF (Leukemia Inhibitory factor) because LIF is a key factor of the self-renewal of ESCs.
The various tests were carried out in absence of serum because serum limits the possibility to specifically orientate the differentiation and it could hide, or at least reduce, the effects of the peptide compound of the invention.
ESCs were grown in the culture medium as defined above with addition of 0.5 mg/ml NX210 (SEQ ID NO: 6) at day 1, 3 and 5.
Then, cultures were fixed with 4% paraformaldehyde after 7 days of culture.
To analyze the differentiation of ESCs into neuroepithelial progenitors and into differentiated neurons, the various cell types were visualized by immunocytochemistry: • using a primary anti-nestin antibody (nestin=intermediate filament protein), specific of neuroepithelial progenitors, and • using a primary anti-MAP2 antibody (MAP2=microtubule associated protein 2), specific of dendrites, and thus specific of differentiated neurons.
The total number of cells was measured by labelling nuclei using bisbenzimide/Hoechst 33342, a fluorescent dye with an affinity for DNA that is commonly used to color nuclei in blue.

For experiment [2], the system named is ESCs / neuroepithelial progenitors. Description: Selection of neuroepithelial progenitors from ESC embryoid bodies, Nestin immunostaining. The format is cell-based. The method, then:
For these experiments, the differentiation of ESCs was preferably orientated to the neuronal differentiation pathway, according to the protocol adapted from Okabe et al., (Mechanisms of Development, 59:89-102, 1996).
In brief, to start the differentiation, the ESCs were grown on gelatin without LIF for two days. The cells were carefullly trypsinated to collect small ESC aggregates. Then, these aggregates were transferred on a Petri dish without any coating to produce non-adherent spherical cell bodies, namely the embryoid bodies (EB).
After 5 days of culture, the EB were transferred onto a new Petri dish covered with gelatin to enable cell adhesion.
After 24h of culture, the culture medium with fetal bovine serum 10% was replaced by a culture medium serum free to select neuroepithelial progenitors and the peptide NX210 (SEQ ID NO: 6) was added in the culture medium at a concentration of 0.5 mg/ml.
After 6 days of culture, the maximal content of cells expressing the nestin protein (a cytoskeletal protein specific of the neuroepithelial progenitors) was reached.
The cell population enriched for neuroepithelial progenitors was then trypsinated and seeded at a concentration of 1×10^5 cells/cm^2 on a substrate made up of a polyornithine and laminin mix. […]

Regarding “W-S-G-W-S-S-C-S-R-S-C-G (WSGWSSCSRSCG) [NX210]”, the “population of ESCs expressing the nestin protein” value in experiment [1] (0.5 mg/ml NX210, 7 days of culture on gelatin, compared to culture in the absence of NX210) was “reduced; also recorded: few Nestin+cells”. Moreover, the “cells expressing the MAP2 protein (differentiated neurons)” value in experiment [1] (0.5 mg/ml NX210, 7 days of culture, no MAP2 cells in the absence of NX210) is recorded as “some cells expressing the MAP2 protein”. Also, the “orientation of ESCs to the neuronal differentiation pathway” value in experiment [1] (0.5 mg/ml NX210, in terms of kinetics) is listed as “induces a preferential orientation of ESCs to the neuronal differentiation pathway”. In experiment [1] (after 5 days in the presence of 0.5 mg/ml NX210, compared to control culture), the “MAP2+ cells in ESCs (FIG. 2)” value is recorded as “only observed in presence of NX210”. Further, the “cells expressing the Nestin protein (neuronal precursors)” value in experiment [2] (0.5 mg/ml NX210 in serum free medium, then 2 days with FGF2, compared to untreated culture) is on record as “More cells expressing the Nestin protein”. Besides, the “response to the specific stimulation by FGF2” value in experiment [2] (during selection of the neuroepithelial progenitors) was “promotes a more efficient response”.
